“Also recorded” adds a separate entry of the source.
Columns and labels:
[1] = test system: Fmr1 knockout (KO) or Wild Type (WT) mice; test: Contextual fear conditioning (freezing); format: in vivo, mouse
Protocol: (§1) Fmr1 knockout mice (KO2) mice (The Dutch-Belgium Fragile X Consortium, 1994), initially obtained from the Jackson Laboratory, and wild type (WT) littermates were generated on a C57BL/6J background and repeatedly backcrossed onto a C57BL/6J background for more than eight generations. The Fmr1 knockout mice were housed in groups of the same genotype in a temperature and humidity controlled room with a 12-h light-dark cycle (lights on from 7 am to 7 pm; testing was conducted during light phase). Room temperature and humidity were recorded continuously in the holding room while food and water were available ad libitum. Testing was conducted on healthy Fmr1 knockout mice and their wild type littermates (N=10 mice per treatment group) at 2 or 6 months of age during the behavioral experiments. Mice were housed in commercial plastic cages and experiments were conducted in line with the requirements of the UK Animals (Scientific Procedures) Act, 1986. All experiments were conducted with experimenters blind to genotype and drug treatment. Animals were allowed a minimum acclimatization period of one week prior to performing any experiment. No prophylactic or therapeutic treatment was administered during the acclimatization period.
(§2) In all cases, saline was used as a vehicle (control).
In the fear conditioning experiment, mice were placed into a novel environment (dark chamber) and received pairings of a cue and electric footshock (0.2 mA for 1 sec (Study 1) or 0.7 mA for 0.5 sec (Study 2)). […] Freezing time was defined as the time that the mice spent in immobile behavior, except for respiration. The data was expressed as the percentage of the test period. 24 hours after a training session, mice were tested for 5 min in the training chamber with no shock presentation and observed for freezing behavior.
(§3) Multivariate analysis of variance was employed to assess group differences across data. Repeated measures ANOVA were performed for behavioral data. Statistically significant effects in each ANOVA were followed with post hoc comparisons, using the Newman-Keuls test (Study 1) or the Tukey test (Study 2). A p value of less than 0.05 was considered significant.

[2] = test system: Fmr1 knockout (KO) or Wild Type (WT) mice; test: Social approach (sniffing of a juvenile, Trial 1); format: in vivo, mouse; details: for social approach (sniffing bouts) / social approach, duration of sniffing: 2 months old; for social approach (sniffing bouts): Study 1; for social approach, duration of sniffing: Study 2; for duration of sniffing, Trial 1: 150 mg/kg ip 7 days
Protocol: as §1, §2
Mice are a social species that engage in easily scored social behaviors including approaching, following, sniffing, grooming, aggressive encounters, sexual interactions, parental behaviors, nesting, and sleeping in a group huddle. Social approach in mice was evaluated by sniffing duration directed to a novel mouse.
Mice were placed in a test arena/cage of the same order of magnitude in size as the adult's home cage (40×23×12 cm cage, with a Perspex lid to facilitate viewing the mice) with fresh wood chippings on the floor. A background mouse odor was created by putting in some non-experimental mice into the apparatus prior to testing. Mice were transferred to the experimental room 10-15 min prior to testing. A test subject and a juvenile were placed simultaneously into the test cage. The total duration and number of bouts of social investigation, defined as sniffing and close following (<2 cm from the tail) of the stimulus juvenile by the tested mouse, was assessed for 3 min. 30 min later, the test was repeated using the same stimulus juvenile. Data parameters collected were the total duration and total number of bouts of sniffing for the acquisition and recognition. A social memory ratio was derived, defined as trial 2/trial 1+2. Therefore, no memory (e.g. 20/(20+20)=0.5 and memory (e.g. 10/(20+10)=<0.5.
as §3

Akt = test: Lymphocyte pAkt (flow cytometry); format: in vivo, mouse; details: Fmr1 KO mice, 2 months old
Protocol: as §2
(§4) The Ras-Mek-ERK and PI3K-Akt-mToR signaling pathways are involved in mediating activity dependent alterations in gene transcription underlying changes in synaptic plasticity (Klann and Dever, 2004). Phosphorylated ERK and Akt protein expression was measured by western blot analysis as previously described by Lopez Verrilli (Lopez Verrilli et al., 2009). The antibodies employed were anti-phosphospecific antibodies against Akt (1/1000) and kinase (ERK) 1/2 (1/2000) (Cell Signaling Technology, Danvers, Mass., USA). The antibody against phospho-ERK detects phosphorylation at phospho-ERK 1/2 (Thr202/Tyr204) whereas the antibody against phospho-Akt detects phosphorylation at phospho-Akt (Thr308). Total Akt and ERK 1/2 protein content and phosphorylated ERK and Akt were evaluated by blotting membranes with antiphospho-Akt (1/1000) and antiphospho-ERK antibodies (1/2000) (Cell Signaling Technology, Danvers, Mass., USA). Akt or ERK phosphorylation was normalized to protein content in the same sample and expressed as % of change with respect to basal conditions, considering basal levels as 100%. Protein loading was evaluated by stripping and re-blotting membranes with j-actin antibody (1/1000) (Sigma-Aldrich, St. Louis, Mo., USA). Phosphorylated ERK and Akt protein expression in blood lymphocytes was measured by flow cytometry. For lymphocyte biomarker determinations, a FACStar plus (Becton Dickinson) was used with the excitation laser tuned at 488 nm and green fluorescence from FITC (GST) was collected through a 515-545 nm bandpass filter. The mean FITC fluorescence Intensity was calculated in relation to the fluorescence of reference cells. The mean cellular fluorescence intensity (MFI) is directly proportional to the mean number of Ab molecules bound per cell.

[3] = cited from earlier work
ERK = test: Brain phosphorylation of ERK (western blot); format: in vivo, mouse
Protocol: as §2, §4

[4] = Fmr1 KO mice, 6 months old, 150 mg/kg ip once daily 7 days
[5] = Fmr1 KO mice, 2 months old, 150 mg/kg ip 7 days, Study 2

Question: With Cc1ncc(CO)c(CO)c1O.O=C1CC[C@@H](C(=O)O)N1 [metadoxine, pyridoxol L,2-pyrrolidon-5 carboxylate] as the molecule, how does the “contextual fear conditioning, freezing (learning deficit)” value ([1]; Fmr1 KO mice aged six months, 150 mg/kg ip once daily 7 days, Study 2) read?
Answer: Its value is “complete reversal”.

Question: What about the “contextual fear conditioning, freezing (learning deficit)” value ([1]; Fmr1 KO mice, 2 months old, 100 mg/kg ip once daily 7 days, Study 1) of the same molecule?
Answer: The value was “partial reversal”.

Question: And the “contextual fear conditioning, freezing (learning deficit)” value ([1]; Fmr1 KO mice, 2 months old, 150 mg/kg ip once daily 7 days, Study 1, 150 mg/kg)?
Answer: Its value is “reversed the learning deficit effect in Fmr1 knockout mice, this reversal being partial; also recorded: fully rescued”.

Question: And the “contextual fear conditioning, freezing behavior” value ([1]; Fmr1 KO mice, 2 months old, 150 mg/kg ip once daily 7 days, Study 2)?
Answer: Its value is “the reversal was complete”.

Question: What about the “contextual fear conditioning, freezing behavior” value ([1]; Fmr1 KO mice, 2 months old, 150 mg/kg oral once daily 7 days, Study 2) of the same molecule?
Answer: The value was “the reversal was complete”.

Question: And the “contextual fear conditioning, freezing (learning deficit)” value ([1]; Fmr1 KO mice, 2 months old, 200 mg/kg ip once daily 7 days, Study 1, 200 mg/kg)?
Answer: Its value is “completely reversed; also recorded: fully rescued”.

Question: And the “contextual fear conditioning, freezing behavior” value ([1]; Fmr1 KO mice, 2 months old, 300 mg/kg oral once daily 7 days, Study 2)?
Answer: Its value is “the reversal was complete”.

Question: And the “contextual fear conditioning, freezing behavior” value ([1]; WT mice, 2 months old, 150 mg/kg ip or 150 and 300 mg/kg oral, 7 days, Study 2)?
Answer: Its value is “No effects were seen”.

Question: What about the “contextual fear conditioning, freezing” value ([1]; WT mice, 2 months old, 100, 150 or 200 mg/kg ip once daily 7 days, Study 1) of the same molecule?
Answer: The value was “no effect on WT mice”.

Question: What about the “social approach (sniffing bouts)” value ([2]; Fmr1 KO mice, 150 mg/kg ip once daily 7 days, 150 mg/kg) of the same molecule?
Answer: Its value is “increased social approach in Fmr1 knockout mice; also recorded: improved social interaction”.

Question: What about the “social approach, duration of sniffing” value ([2]; Fmr1 KO mice, 150 mg/kg ip once daily 7 days) of the same molecule?
Answer: Its value is “reversal was complete”.

Question: What about the “social approach, duration of sniffing” value ([2]; Fmr1 KO mice, 150 mg/kg oral once daily 7 days) of the same molecule?
Answer: Its value is “reversal was complete”.

Question: What about the “social approach, duration of sniffing” value ([2]; Fmr1 KO mice, 300 mg/kg oral once daily 7 days) of the same molecule?
Answer: Its value is “reversal was complete”.

Question: What about the “social approach, duration of sniffing (Trial 1)” value [2, 4] of the same molecule?
Answer: Its value is “this effect was partial”.

Question: And the “social approach, number of sniffing bouts (Trial 1)” value [2, 4]?
Answer: Its value is “did not differ from metadoxine-treated WT mice”.

Question: What about the “duration of sniffing, Trial 1” value ([2]; KO-M: Fmr1 KO mice, 6 months old) of the same molecule?
Answer: The value was 28.4.

Question: What about the “social approach (sniffing bouts)” value ([2]; WT mice, 150 mg/kg ip once daily 7 days) of the same molecule?
Answer: The value was “no effect on WT mice”.

Question: And the “social approach, duration of sniffing” value ([2]; WT mice, any dose (150 mg/kg ip, 150 and 300 mg/kg oral))?
Answer: Its value is “without effect on WT mice”.

Question: What about the “social approach, sniffing bouts and duration (Trial 1)” value ([2]; WT mice, 6 months old, 150 mg/kg ip once daily 7 days) of the same molecule?
Answer: The value was “without effect on WT mice”.

Question: What about the “duration of sniffing, Trial 1” value ([2]; WT-M: WT mice, 6 months old) of the same molecule?
Answer: Its value is 38.5.

Question: And the “lymphocyte pAkt” value (Akt; 150 mg/kg ip once daily 7 days)?
Answer: Its value is “normalized overactivated Akt”.

Question: What about the “lymphocyte pAkt” value (Akt; 150 mg/kg oral once daily 7 days) of the same molecule?
Answer: Its value is “normalized overactivated Akt”.

Question: What about the “lymphocyte pAkt” value (Akt; 300 mg/kg oral once daily 7 days) of the same molecule?
Answer: Its value is “normalized overactivated Akt”.

Question: And the mean half life ([3]; human serum, Lu Yuan et al. 2007)?
Answer: The mean half life was “about 0.8 hour”.

Question: What about the “half-life in human serum” value ([3]; human serum, no appreciable differences between oral and intravenous administration) of the same molecule?
Answer: Its value is 40 to 60 min.

Question: What about the oral bioavailability ([3]; oral) of the same molecule?
Answer: The oral bioavailability was 60-80%.

Question: And the “pERK levels in hippocampus” value (ERK; [5])?
Answer: The value was “complete reversal of activation of ERK”.

Question: And the “pERK levels in pre-frontal cortex” value (ERK; [5])?
Answer: Its value is “effect in pre-frontal cortex was partial”.

Question: What about the “pERK levels in striatum” value (ERK; [5]) of the same molecule?
Answer: The value was “complete reversal of activation of ERK”.

Question: What about the “whole brain levels of pERK” value (ERK; [4]) of the same molecule?
Answer: Its value is “increase was reversed by metadoxine treatment”.

Question: What about the “pERK levels in hippocampus, pre-frontal cortex and striatum” value (ERK; WT mice, 2 months old, 150 mg/kg ip 7 days, Study 2) of the same molecule?
Answer: The value was “without effect on WT mice”.

Question: And the “whole brain phosphorylation of ERK” value (ERK; WT mice, 2 months old, 150 mg/kg ip once daily 7 days, Study 1)?
Answer: The value was “no effect on phosphorylation of ERK in WT mice”.

Question: What about the “whole brain total ERK levels” value (ERK; any mice (KO or WT), 2 months old, 150 mg/kg ip once daily 7 days, Study 1) of the same molecule?
Answer: The value was “no effect”.
